Read-outs that look alike come from different tables or passages of the source.
What was measured:
[1] = test system: murine 3T3 Balb fibroblast cells; experiment: CCK8 antiproliferation / cytotoxicity assay in 3T3 Balb fibroblasts; assay type: cell-based; details: CCK-8 assay, murine fibroblast 3T3 Balb cells
Procedure: (§1) The cytotoxic activity of these new synthesized isatin derivatives was evaluated by means of the CCK8 antiproliferation assay in vitro in two different cell lines: cancerous cervical HeLa and murine 3T3 Balb fibroblast cells. The latter cell line is typically used to analyze the potential toxicity of (nano)materials thanks to their sensitivity. […] It can be observed that fibroblast cells were more sensitive to the presence of isatin derivatives than the cancerous cells in general HeLa ones, probably related to the enhanced replication rate of the tumoral cells. Analysis of the experimental data shown in Figure 6 allowed the determination of IC50 values (see Table 3 and Table 4). […] [65, 66] Compounds 26 and 33 are, therefore, new promising hits for further development.
(§2) Cervical HeLa cancer cells and 3T3 mouse fibroblasts from Cell Biolabs (San Diego, CA, USA) were grown in standard culture conditions (5% CO2 at 37 °C) in DMEM supplemented with 10% (v/v) FBS, 2 mM L-glutamine, 1% (v/v) penicillin/streptomycin, 1 mM sodium pyruvate, and 0.1 mM MEM nonessential amino acids (NEAA).
(§3) Cytotoxicity of the synthesized isatin-based compounds was tested in vitro by means of the CCK-8 cytotoxicity assay. Cancerous cervical HeLa and 3T3 Balb fibroblasts cells were seeded into 96-well plates (1.0 × 10^4 cells/well) and grown for 24 h at an optical confluence of 80–90% under standard culture conditions in 100 μL growth medium. Bare cells were used as the negative control. After 24 h of incubation at 37 °C, 100 μL of NPs at 2.5 × 10^10 NP/mL in the corresponding cell culture medium were injected into the wells and incubated for 24 h and 48 h. After incubation, the culture medium was discarded, cells were washed with 10 mM PBS (pH 7.4) several times, and fresh culture medium (100 μL) containing 10 μL of CCK-8 reagent added to each well. After 2 h, the absorption at 450 nm of cell samples was measured with an UV-vis microplate absorbance reader (Bio-Rad model 689, USA). Cell viability (SR, survival rate) was calculated as follows: SR=Abssample/Absblank×100 where Abssample is the absorbance at 450 nm for cell samples, and Absblank is the absorbance corresponding to the sample controls without the particles.
(§4) For the determination of the half-maximal inhibitory concentration (IC50), a dose–response curve between the isatin derivatives’ concentrations and percent cell viability was plotted and fitted by means of a nonlinear least-squares fitting method (Microcal Origin 2021) to a four-parameter logistic equation: Y=min+((max−min)/1+10^((logIC50−X)×p)) where the original, %control or %survival data are represented by Y along their minimal (min) and maximal (max) values; the isatin derivative concentration is represented by X; IC50 is the concentration at 50% maximal value; and p is the slope factor.

[2] = test system: cancerous cervical HeLa cells; experiment: CCK8 antiproliferation / cytotoxicity assay in HeLa cells; assay type: cell-based, human; details: for specificity for tumoral cells: HeLa versus 3T3 Balb fibroblasts; for IC50: CCK-8 assay, human cervical cancer HeLa cells
Procedure: as §1, §2, §3, §4

HeLa cell line = test system: HeLa cell line; parameters: method as in doi:10.1002/ajoc.202100684; details: cited from earlier work
HBL-100 cell line = test system: HBL-100 cell line; parameters: method as in doi:10.1002/ajoc.202100684; details: HBL-100 line; cited from earlier work
cervical tumors = details: cited from earlier work
[3] = Pt-based chemodrug, first line treatment of primary cervical tumors
[4] = drugs used for recurrent and metastatic cervical cancer

| Molecule | melting point [°C] | IC50 ([1]; Mus musculus) [µM] | IC50 ([2]; Homo sapiens, HeLa) [µM] | also measured |
| --- | --- | --- | --- | --- |
| O=C1C(=O)N(Cc2cn(Cc3ccccc3)nn2)c2ccccc21 [Compound 25] | 175 to 177 | 100 ± 3.1 | 13.9 ± 4.5 |  |
| O=C1C(=O)N(Cc2cn(Cc3ccccc3)nn2)c2ccc(I)cc21 [Compound 26] |  | 21.5 ± 2 | 2.5 ± 0.4 | specificity for tumoral cells [2]: high specificity for tumoral cells |
| COC(=O)/C=C/c1ccc2c(c1)C(=O)C(=O)N2Cc1ccccc1 [Compound 31] |  | 3.5 ± 0.8 | 6.8 | IC50 [2]: 8.8 ± 1.1 µM; specificity for tumoral cells [2]: not showing fully specific toxic activity for cancerous cells |
| COC(=O)/C=C/c1ccc(CN2C(=O)C(=O)c3cc(/C=C/C(=O)OC)ccc32)cc1 [Compound 33, methyl (E)-3-(4-((5-((E)-3-methoxy-3-oxoprop-1-en-1-yl)-2,3-dioxoindolin-1-yl)methyl)phenyl)acrylate] | 188 to 190 | 12.6 ± 0.9 | 1 ± 0.05 | specificity for tumoral cells [2]: high specificity for tumoral cells |
| N.N.O=C([O-])C1(C(=O)[O-])CCC1.[Pt+2] [carboplatin] |  |  |  | IC50 (cervical tumors; [3]): 1000 µM |
| N.N.[Cl][Pt][Cl] [cisplatin] |  |  |  | IC50 (cervical tumors; [3]): 15 µM |
| CC(=O)O[C@H]1C(=O)[C@@]2(C)[C@H]([C@H](OC(=O)c3ccccc3)[C@]3(O)C[C@H](OC(=O)[C@H](O)[C@@H](NC(=O)c4ccccc4)c4ccccc4)C(C)=C1C3(C)C)[C@]1(OC(C)=O)CO[C@@H]1C[C@@H]2O [paclitaxel] |  |  |  | IC50 (cervical tumors; [4]): 21 µM |
| CC[C@@]1(O)C(=O)OCc2c1cc1n(c2=O)Cc2cc3c(CN(C)C)c(O)ccc3nc2-1 [topotecan] |  |  |  | IC50 (cervical tumors; [4]): 26 µM |
| N-(tert-butyl)-3-(N-butyl-2-chloroacetamido)-1-methyl-2-oxoindoline-3-carboxamide [Compound 11] |  |  |  | IC50 [1]: 7.3 ± 0.7 µM; IC50 [2]: 40.1 ± 1.5 µM |

Further lines, with some results ahead:

| melting point [°C] | Molecule | IC50 ([1]; Mus musculus) [µM] | IC50 ([2]; Homo sapiens, HeLa) [µM] | also measured |
| --- | --- | --- | --- | --- |
| 108.5 to 109.7 | CCCCN(C(=O)CCl)C1(C(=O)NC(C)(C)C)C(=O)Nc2ccc(I)cc21 (stereo not drawn) [Compound 12, N-(tert-butyl)-3-(N-butyl-2-chloroacetamido)-5-iodo-2-oxoindoline-3-carboxamide] | 1.3 ± 0.2 | 8.3 ± 0.8 | specificity for tumoral cells [2]: not showing fully specific toxic activity for cancerous cells; antiproliferative activity (HeLa cell line): potent antiproliferative activity; antiproliferative activity (HBL-100 cell line): potent antiproliferative activity |
| 179.5 to 179.8 | CCCCN(C(=O)CCl)C1(C(=O)NC(C)(C)C)C(=O)Nc2ccc([N+](=O)[O-])cc21 (stereo not drawn) [Compound 13, N-(tert-butyl)-3-(N-butyl-2-chloroacetamido)-5-nitro-2-oxoindoline-3-carboxamide] | 4.8 ± 0.9 | 26.9 ± 1 |  |
| 125 to 126 | CCCCN(C(=O)CCl)C1(C(=O)NC(C)(C)C)C(=O)Nc2c(Cl)cc(Cl)cc21 (stereo not drawn) [Compound 14, N-(tert-butyl)-3-(N-butyl-2-chloroacetamido)-5,7-dichloro-2-oxoindoline-3-carboxamide] | 1.5 ± 0.3 | 14.1 ± 0.3 |  |
| 209 to 210 | CCCCN(C(=O)C(F)(F)F)C1(C(=O)NC2CCCCC2)C(=O)Nc2ccc(Br)cc21 (stereo not drawn) [Compound 15, 5-bromo-3-(N-butyl-2,2,2-trifluoroacetamido)-N-cyclohexyl-2-oxoindoline-3-carboxamide] | 28.3 ± 1.7 | 47.7 ± 1.2 |  |
| 180 to 182 | CCCCN(C(=O)CCl)C1(C(=O)NC(C)(C)C)C(=O)Nc2ccc(Br)cc21 (stereo not drawn) [Compound 16, 5-Bromo-N-(tert-butyl)-3-(N-butyl-2-chloroacetamido)-2-oxoindoline-3-carboxamide] | 1.5 ± 0.8 | 17.9 ± 1.3 |  |
| 204 to 205 | CCCCN(C(=O)C(F)(F)F)C1(C(=O)NC(C)(C)C)C(=O)Nc2ccc(I)cc21 (stereo not drawn) [Compound 17, N-(tert-butyl)-3-(N-butyl-2,2,2-trifluoroacetamido)-5-iodo-2-oxoindoline-3-carboxamide] | 7.2 ± 0.5 | 33 ± 1.4 |  |
| 218 to 220 | CCCCN(C(=O)C(F)(F)F)C1(C(=O)NC2CCCCC2)C(=O)Nc2ccc(I)cc21 (stereo not drawn) [Compound 18, 3-(N-butyl-2,2,2-trifluoroacetamido)-N-cyclohexyl-5-iodo-2-oxoindoline-3-carboxamide] | 8.5 ± 0.7 | 6.8 ± 0.5 |  |
| 198 to 200 | CCCCN(C(=O)C(F)(F)F)C1(C(=O)NC(C)(C)C)C(=O)Nc2ccc(Br)cc21 (stereo not drawn) [Compound 19, 5-bromo-N-(tert-butyl)-3-(N-butyl-2,2,2-trifluoroacetamido)-2-oxoindoline-3-carboxamide] | 7.8 ± 0.4 | 16.8 ± 1.7 |  |
| 178 to 180 | CCCCN(C(=O)C(F)(F)F)C1(C(=O)NC(C)(C)C)C(=O)Nc2ccc([N+](=O)[O-])cc21 (stereo not drawn) [Compound 20, N-(tert-butyl)-3-(N-butyl-2,2,2-trifluoroacetamido)-5-nitro-2-oxoindoline-3-carboxamide] | 25 ± 1.9 | 26 ± 1.9 |  |
| 200 to 202 | CCCCN(C(=O)C(F)(F)F)C1(C(=O)NC2CCCCC2)C(=O)Nc2ccc([N+](=O)[O-])cc21 (stereo not drawn) [Compound 21, 3-(N-butyl-2,2,2-trifluoroacetamido)-N-cyclohexyl-5-nitro-2-oxoindoline-3-carboxamide] | 17 ± 0.7 | 12.4 ± 0.7 |  |
| 190.2 to 190.4 | CCCCN(C(=O)CCl)C1(C(=O)NC2CCCCC2)C(=O)Nc2ccc(Br)cc21 (stereo not drawn) [Compound 22, 5-bromo-3-(N-butyl-2-chloroacetamido)-N-cyclohexyl-2-oxoindoline-3-carboxamide] | 0.12 ± 0.01 | 27 ± 0.8 |  |
| 158 to 159 | CCOC(=O)Cn1cc(CN2C(=O)C(=O)c3cc(I)ccc32)nn1 [Compound 27] | 7.3 ± 0.7 | 66.9 ± 8.9 |  |
| 131 to 132 | COC(=O)/C=C/c1ccc2c(c1)C(=O)C(=O)N2CCC(=O)OC [Compound 30, methyl (E)-3-(1-(3-methoxy-3-oxopropyl)-2,3-dioxoindolin-5-yl)acrylate] | 42.1 ± 2.7 | 9.3 ± 0.8 | specificity for tumoral cells [2]: not showing fully specific toxic activity for cancerous cells |
| 228 to 230 | COC(=O)/C=C/c1ccc2c(c1)C(=O)C(=O)N2Cc1ccc(I)cc1 [Compound 32, methyl (E)-3-(1-(4-iodobenzyl)-2,3-dioxoindolin-5-yl)acrylate] | 32.1 ± 3.4 | 10.8 ± 0.9 |  |
